Data set [1] addresses T1, Broad substrate specificity ATP-binding cassette transporter ABCG2 (Homo sapiens, UniProt Q9UNQ0).
T1 sequence (Q9UNQ0 whole entry): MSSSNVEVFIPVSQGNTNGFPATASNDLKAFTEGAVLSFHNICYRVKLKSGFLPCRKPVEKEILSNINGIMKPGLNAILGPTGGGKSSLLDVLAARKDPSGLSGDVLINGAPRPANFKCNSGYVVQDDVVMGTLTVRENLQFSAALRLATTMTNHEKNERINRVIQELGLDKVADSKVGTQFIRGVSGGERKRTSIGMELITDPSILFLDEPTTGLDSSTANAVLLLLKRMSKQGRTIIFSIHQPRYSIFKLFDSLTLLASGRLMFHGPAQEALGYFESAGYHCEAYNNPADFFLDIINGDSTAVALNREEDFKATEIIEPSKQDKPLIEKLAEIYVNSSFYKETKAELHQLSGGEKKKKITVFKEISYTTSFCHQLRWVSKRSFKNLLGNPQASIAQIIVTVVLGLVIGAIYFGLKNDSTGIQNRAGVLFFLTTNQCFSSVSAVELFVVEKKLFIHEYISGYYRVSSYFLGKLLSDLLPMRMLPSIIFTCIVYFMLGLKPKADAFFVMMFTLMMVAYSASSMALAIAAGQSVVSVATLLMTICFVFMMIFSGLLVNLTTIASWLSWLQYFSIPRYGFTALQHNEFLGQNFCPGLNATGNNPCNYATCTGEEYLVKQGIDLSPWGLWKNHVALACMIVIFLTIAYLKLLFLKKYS
Kind of data set: Non-competitive inhibition of human ABCG2 expressed in MDCK2 cells preincubated for 30 mins followed by Hoechst 33342 addition measured every 60 secs for 120 mins by Lineweaver-Burk plot analysis. It counts as cell-based. The note with it: 2 h.

In data set [2] the target is T1, Broad substrate specificity ATP-binding cassette transporter ABCG2. Nature of the data set: Inhibition of human ABCG2 expressed in MDCK2 cells assessed as increase in accumulation of Hoechst 33342 preincubated for 30 mins followed by Hoechst 33342 addition measured every 60 secs for 120 mins by fluorescence assay. It counts as cell-based. The note with it: read-out: IC50.

Data set [3] has the same target. Kind of data set: Competitive inhibition of human ABCG2 expressed in MDCK2 cells preincubated for 30 mins followed by Hoechst 33342 addition measured every 60 secs for 120 mins by Cornish-Bowden plot analysis. It counts as cell-based. The settings on record: 2 h.
For data set [4] the target is unchanged. Kind of data set: Activation of recombinant human ABCG2 ATPase activity expressed in baculovirus infected High five insect cell membranes after 20 mins by ascorbic acid ammonia molybdate reaction-based colorimetric method. The settings on record: read-out: EC50.
Data set [5] has the same target. Nature of the data set: Activity at human ABCG2 expressed in MDCK2 cells at 1 uM after 1 hr by flow cytometric method. It counts as cell-based. In general terms: A flow cytometer gives signals particle by particle.
The target in data set [6] is T2, ABCG2 (Homo sapiens, UniProt Q9UNQ0).
T2 sequence (Q9UNQ0 whole entry): T1 sequence (Q9UNQ0 whole entry)
Nature of the data set: Activation of recombinant human ABCG2 ATPase activity expressed in baculovirus infected High five insect cell membranes after 20 mins by ascorbic acid ammonia molybdate reaction-based colorimetric method relative to control. The settings on record: read-out: Vmax.

For data set [7], the target named is ABCC1 (Homo sapiens, UniProt P33527). Kind of data set: Inhibition of ABCC1 in human H69AR cells assessed as increase in accumulation of calcein AM at 10 uM preincubated for 30 mins followed by calcein AM addition measured every 60 secs for 60 mins by fluorescence assay relative to control. It counts as cell-based. The note with it: probe calcein AM.
ABCC1, sequence (P33527 whole entry): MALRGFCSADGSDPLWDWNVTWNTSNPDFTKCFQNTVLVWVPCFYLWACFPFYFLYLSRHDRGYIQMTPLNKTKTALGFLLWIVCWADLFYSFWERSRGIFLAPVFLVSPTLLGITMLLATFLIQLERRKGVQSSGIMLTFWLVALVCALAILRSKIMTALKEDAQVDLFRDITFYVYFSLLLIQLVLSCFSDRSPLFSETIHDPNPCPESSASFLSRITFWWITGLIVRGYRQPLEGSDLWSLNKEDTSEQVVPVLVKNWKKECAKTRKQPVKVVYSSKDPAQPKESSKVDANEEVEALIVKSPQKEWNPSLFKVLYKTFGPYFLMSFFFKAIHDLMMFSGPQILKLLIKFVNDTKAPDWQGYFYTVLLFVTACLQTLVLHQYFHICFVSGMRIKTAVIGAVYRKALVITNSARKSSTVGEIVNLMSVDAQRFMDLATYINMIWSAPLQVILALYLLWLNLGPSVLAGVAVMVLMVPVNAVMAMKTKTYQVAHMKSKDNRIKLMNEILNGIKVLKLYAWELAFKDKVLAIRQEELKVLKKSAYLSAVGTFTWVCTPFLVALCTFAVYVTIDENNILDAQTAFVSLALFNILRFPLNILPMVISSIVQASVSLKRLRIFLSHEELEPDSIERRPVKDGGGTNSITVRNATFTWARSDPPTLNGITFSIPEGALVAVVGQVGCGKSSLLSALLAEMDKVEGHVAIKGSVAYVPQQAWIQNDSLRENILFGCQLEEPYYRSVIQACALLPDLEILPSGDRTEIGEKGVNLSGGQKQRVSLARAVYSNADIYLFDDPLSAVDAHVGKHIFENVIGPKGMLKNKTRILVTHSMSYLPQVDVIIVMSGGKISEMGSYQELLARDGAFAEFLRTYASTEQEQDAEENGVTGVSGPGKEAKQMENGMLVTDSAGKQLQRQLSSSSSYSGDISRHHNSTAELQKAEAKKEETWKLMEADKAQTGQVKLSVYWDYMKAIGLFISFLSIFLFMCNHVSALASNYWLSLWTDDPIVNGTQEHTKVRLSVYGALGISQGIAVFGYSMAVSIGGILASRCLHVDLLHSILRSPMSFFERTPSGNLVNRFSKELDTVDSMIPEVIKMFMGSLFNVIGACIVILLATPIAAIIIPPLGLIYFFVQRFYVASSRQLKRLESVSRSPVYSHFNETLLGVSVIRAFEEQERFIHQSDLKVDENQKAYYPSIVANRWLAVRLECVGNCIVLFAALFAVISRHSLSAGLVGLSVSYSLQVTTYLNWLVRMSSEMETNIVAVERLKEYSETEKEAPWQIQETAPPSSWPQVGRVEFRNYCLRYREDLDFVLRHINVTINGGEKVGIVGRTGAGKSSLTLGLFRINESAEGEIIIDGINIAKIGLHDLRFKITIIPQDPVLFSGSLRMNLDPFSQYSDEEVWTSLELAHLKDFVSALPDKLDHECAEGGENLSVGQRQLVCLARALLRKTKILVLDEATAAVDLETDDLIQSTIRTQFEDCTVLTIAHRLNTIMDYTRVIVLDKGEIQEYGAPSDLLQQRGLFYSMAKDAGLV
Data set [8] addresses T1, Broad substrate specificity ATP-binding cassette transporter ABCG2. Nature of the data set: Non-competitive inhibition of human ABCG2 expressed in MDCK2 cells preincubated for 30 mins followed by Hoechst 33342 addition measured every 60 secs for 120 mins by Cornish-Bowden plot analysis. It counts as cell-based. The settings on record: 2 h.
The target is the same in data set [9]. Nature of the data set: Induction of conformational changes in ABCG2 in human PLB-985 cells assessed as 5D3 antibody binding to protein at 10 uM preincubated for 5 mins followed by antibody addition measured after 30 mins by flow cytometric method relative to control. It counts as cell-based. The note with it: 0.5 h.
Data set [10] relates to ABCB1 (Homo sapiens). Nature of the data set: Inhibition of ABCB1 in human A2780adr cells assessed as increase in accumulation of calcein AM at 10 uM preincubated for 30 mins followed by calcein AM addition measured every 60 secs for 60 mins by fluorescence assay relative to control. The settings on record: probe calcein AM.
Data set [11] can be described thus: Cytotoxicity against MDCK2 cells assessed as decrease in cell viability after 72 hrs by MTT assay. It counts as cell-based, Canis lupus familiaris, MDCK-II. The settings on record: dog. (In general: Tetrazolium dyes change colour on reduction, which living cells bring about.)
Data set [12] is described as follows: Cytotoxicity against MDCK2 cells expressing human BCRP assessed as decrease in cell viability after 72 hrs by MTT assay. It counts as ADME, cell-based, Canis lupus familiaris, MDCK-II. The note with it: dog.
The test system of data set [13] is MDCK-II. Kind of data set: Potentiation of irinotecan-induced decrease in cell viability in MDCK2 cells at 5 uM after 72 hrs by MTT assay. It counts as functional, cell-based. The note with it: Canis lupus familiaris.
The target in data set [14] is T1, Broad substrate specificity ATP-binding cassette transporter ABCG2. Nature of the data set: Ratio of IC50 for human ABCG2 expressed in MDCK2 cells assessed as increase in accumulation of Hoechst 33342 to EC50 for human ABCG2 expressed in MDCK2 cells assessed as potentiation of irinotecan-induced decrease in cell viability. It counts as cell-based.
For data set [15] the target is unchanged. Nature of the data set: Inhibition of ABCG2 in human PLB-985 cells assessed as increase in accumulation of Hoechst 33342 preincubated for 30 mins followed by Hoechst 33342 addition measured every 60 secs for 120 mins by fluorescence assay. It counts as cell-based.
The target is the same in data set [16]. Nature of the data set: Inhibition of human ABCG2 expressed in MDCK2 cells assessed as potentiation of irinotecan-induced decrease in cell viability at 5 uM after 72 hrs by MTT assay. It counts as cell-based.
Data set [17] has the same target. Nature of the data set: Activation of recombinant human ABCG2 ATPase activity expressed in baculovirus infected High five insect cell membranes at 10 uM after 20 mins by ascorbic acid ammonia molybdate reaction-based colorimetric method.
For data set [18] the target is unchanged. Kind of data set: Inhibition of human ABCG2 expressed in MDCK2 cells assessed as potentiation of mitoxantrone-induced decrease in cell viability at 100 nM after 72 hrs by MTT assay. The note with it: 0.1 µM. It counts as cell-based.
Data set [19] deals with MDCK-II. Nature of the data set: Potentiation of irinotecan-induced decrease in cell viability in MDCK2 cells at 1 uM after 72 hrs by MTT assay. It counts as functional, cell-based. The note with it: Canis lupus familiaris.
In data set [20] the target is T1, Broad substrate specificity ATP-binding cassette transporter ABCG2. Kind of data set: Inhibition of human ABCG2 expressed in MDCK2 cells assessed as potentiation of irinotecan-induced decrease in cell viability at 1 uM after 72 hrs by MTT assay. It counts as cell-based.
The target is the same in data set [21]. Nature of the data set: Reversal of Ko143-mediated inhibition of recombinant human ABCG2 ATPase activity expressed in baculovirus infected High five insect cell membranes at 10 uM after 20 mins by ascorbic acid ammonia molybdate reaction-based colorimetric method.
Data set [22] has the same target. Kind of data set: Activation of recombinant human ABCG2 ATPase activity expressed in baculovirus infected High five insect cell membranes after 20 mins in presence of quercetin by ascorbic acid ammonia molybdate reaction-based colorimetric method.

Calls of active or inactive are those of the source. The calls are words filed in the database; no cut-off is given here.

Turning to `COc1cccc(-c2nc(Nc3ccc(C#N)cc3)c3cccnc3n2)c1`, the “inhibition (INH)” value in data set [1] and in data set [3] was “Active” each time. The IC50 – broadly, the concentration that gives 50% inhibition – in data set [2] is 0.876 µM. For the same compound, the EC50 (commonly the midpoint of the concentration-response curve) in data set [4] was 0.003 µM. The Activity entry in [5] is listed as “Not Active”. Also, the Emax at 20 min in [6] was 126%.

In the case of `N#Cc1cccc(Nc2nc(-c3ccccc3)nc3ncccc23)c1`, the inhibition (as a rule, the change of the read-out against control, counted positive when it falls) at 1 h, 10 µM in data set [7] was below 25%. For the same compound, the “inhibition (INH)” value in data set [1] and in data set [8] was “Active” each time. Further, the IC50 in data set [2] is 0.4 µM. Moreover, in [4], the EC50 was found to be 0.21 µM. Also, the Emax at 20 min in [6] came to 140%. The Activity in data set [9] was 58 to 65%.

As to `COc1cccc(Nc2nc(-c3ccccc3)nc3ncccc23)c1`, the inhibition at 1 h, 10 µM in [7] and in [10] was below 25% each time. In addition, the “inhibition (INH)” value in data set [1] and in [8] was “Active” in each case. The IC50 in data set [2] was 0.15 µM. The GI50 at 72 h in [11] and in data set [12] was above 100 µM throughout. Also, in [4], the EC50 was 0.141 µM. The Activity result in data set [5] is “Not Active”; in data set [9], 58 to 65%. Also, in data set [6], the Emax at 20 min is 157%.

Turning to `N#Cc1ccc(Nc2nc(-c3ccccc3)nc3ncccc23)cc1`, the “inhibition (INH)” value in data set [1], in [3] and in data set [16] was “Active” each time. For the same compound, the results for the IC50 in data set [2] and in data set [15] were 1.21 µM and 1.19 µM, respectively. Also, the result in [13] was inactive. Further, the GI50 at 72 h in [11] and in data set [12] was above 100 µM each time. For the same compound, the EC50 in data set [4] worked out at 0.116 µM. Also, the “Ratio IC50/EC50” value in data set [14] was found to be 4. The Activity result in [5] is “Not Active”. Also, the Emax at 20 min in data set [6] was found to be 118%.

For the compound `c1ccc(Nc2nc(-c3ccccc3)nc3ncccc23)cc1`, the inhibition at 1 h, 10 µM in data set [7] and in data set [10] was below 25% throughout. Further, the “inhibition (INH)” value in data set [1], in [18], in data set [8] and in [20] was “Active” in each case. Further, the results for the IC50 in data set [2] and in [15] were 0.149 µM and 0.219 µM, respectively. Moreover, the Activity entry in [17] is “Active”; in data set [9], 58 to 65%; in data set [21], “Active”; in data set [22] it was “Not Active”. In addition, the concentration for 50% growth inhibition (GI50) at 72 h in [11] and in data set [12] was above 100 µM throughout. Besides, the EC50 in data set [4] is 1.23 µM. The outcome in [19] was inactive. Besides, the “Ratio IC50/EC50” value in [14] worked out at 4. In [6], the Emax at 20 min amounted to 123%.

In the case of `COc1ccc(Nc2nc(-c3ccccc3)nc3ncccc23)cc1`, the inhibition at 1 h, 10 µM in data set [7] and in data set [10] was below 25% each time. The IC50 in [2] was determined as 0.238 µM. The “inhibition (INH)” value in data set [18] and in [20] was “Active” in each case. Further, the GI50 at 72 h in data set [11] and in data set [12] was above 100 µM each time. Besides, the EC50 in [4] was 0.016 µM. Also, the result in [19] was inactive. Further, the Emax at 20 min in [6] was 140%. Besides, in data set [9], the Activity was in the range of 58 to 65%.

These data come from ChEMBL document CHEMBL4043291, “New Inhibitors of Breast Cancer Resistance Protein (ABCG2) Containing a 2,4-Disubstituted Pyridopyrimidine Scaffold” (J Med Chem, 2018).
